In publication PMC7764606 (Cancers, 2020):
Where two headings read alike, the source gives them in different places.

Assays:
HCT116-EV cells = test: MTT cell viability, HCT116-EV cells (incl. Chou-Talalay analysis); assay type: cell-based, human
Protocol: HCT116 cells were seeded (1.25 × 10^5 cells/well) in 24-well plates and cultured for 24 h. For the transient expression of the recombinant human AKR1C3, the cells were transfected with a pCI_AKR1C3 or empty pCI plasmid as control (previously described in a study by Hofman et al.) according to the manufacturer’s instructions (jetPRIME® Transfection Reagent; Polyplus Transfection®, Illkirch, France). For each 24-well plate, a mixture of 0.75 µL of the jetPRIME® Transfection Reagent and 0.25 µg of plasmid was incubated for 10 min at room temperature. Then, polyplexes were added to the HCT116 cells with 0.5 mL of fresh DMEM supplemented with 10% FBS and incubated for 24 h (37 °C, 5% CO2). The expression of recombinant AKR1C3 was verified by western blotting as per methods described previously.
Twenty-four hours prior to the experiment, transfected HCT116 cells (8 × 10^3 cells/well) or A549 cells (5 × 10^3 cells/well) were seeded in 96-well plates. The cell culture medium was replaced with fresh medium containing increasing amounts of Dau (final concentrations: 0.01, 0.05, 0.1, 0.25, 0.5, 0.75, 1, and 10 µM) with or without BTK inhibitors (final concentrations: 1, 5, and 10 µM). After 72 h of incubation under standard conditions (37 °C, 5% CO2), cell viability was assessed by MTT (Sigma-Aldrich, Prague, Czech Republic) assay. For this, 50 µL of the MTT solution (3 mg/mL) was added to each well and incubated for 30 min. The supernatant was collected, and the cell monolayers were dissolved in 100 µL of DMSO. The absorbance was measured at 570 and 690 nm by a microplate reader Infinite M200 (Tecan, Salzburg, Austria), and the background values at 690 nm were subtracted from the absorbance obtained at 570 nm. The half-maximal inhibitory concentrations (IC50) were calculated using GraphPad Prism 8.1.2. The drug combination pharmacodynamics were determined by the Chou-Talalay method using the CompuSyn ver. 3.0.1 software (ComboSyn Inc., Paramus, NJ, USA).

recombinant AKR1C3 = target: T1, recombinant AKR1C3 (Homo sapiens, UniProt P42330); test: Reduction of Dau by recombinant AKR1C3 (UHPLC detection of Dau-ol); assay type: biochemical; details: for reduction of AKR1C3 activity (Dau reduction): Dau 500 µM, relative to DMSO; for Ki: read-out: Ki^app (Morrison equation for tight-binding inhibitors)
T1 construct: made in house; host or cells: Escherichia coli
T1 sequence (P42330 1-323): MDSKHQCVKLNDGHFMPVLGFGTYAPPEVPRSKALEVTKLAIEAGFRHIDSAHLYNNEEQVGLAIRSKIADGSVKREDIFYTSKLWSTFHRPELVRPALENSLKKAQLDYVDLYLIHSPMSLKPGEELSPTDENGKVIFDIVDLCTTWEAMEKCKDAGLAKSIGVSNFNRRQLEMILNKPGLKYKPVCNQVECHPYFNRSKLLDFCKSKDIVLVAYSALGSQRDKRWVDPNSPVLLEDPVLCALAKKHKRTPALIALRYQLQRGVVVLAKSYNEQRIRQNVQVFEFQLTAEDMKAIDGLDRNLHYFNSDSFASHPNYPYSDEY
Protocol: Human recombinant CREs (CBR1, AKR1A1, 1B1, 1B10, 7A2, and 1C3) were produced by an Escherichia coli expression system as per methods described previously. For the inhibitory assay, each recombinant enzyme, CBR1 (1 µg), AKR1A1 (1 µg), AKR1B1 (5 µg), AKR1B10 (5 µg), AKR7A2 (3 µg), or AKR1C3 (1.5 µg) was incubated with BTK inhibitors at different concentrations (10 and 50 µM) and the substrate Dau (500 µM). For analysis using the Lineweaver-Burk plot, 1.5 µg of recombinant AKR1C3 was incubated with DMSO or BTK inhibitors (1, 5, and 10 µM) and Dau (200, 400, 600, 800, 1000, and 2000 µM). […] The incubations and further metabolite detection were further performed by using ultra-high-performance liquid chromatography (UHPLC) as per methods described previously.

[1] = BTK-inhibitor 5 µM + Dau 0.25 µM
[2] = BTK-inhibitor 5 µM + Dau 0.50 µM
[3] = BTK-inhibitor 5 µM + Dau 0.75 µM
[4] = BTK-inhibitor 5 µM + Dau 1.00 µM
[5] = BTK-inhibitor 10 µM + Dau 0.25 µM
[6] = BTK-inhibitor 10 µM + Dau 0.50 µM
[7] = BTK-inhibitor 10 µM + Dau 0.75 µM
[8] = BTK-inhibitor 10 µM + Dau 1.00 µM

With `CC#CC(=O)N1CCC[C@H]1c1nc(-c2ccc(C(=O)Nc3ccccn3)cc2)c2c(N)nccn12` [Acalabrutinib, acalabrutinib] the “Combination index (CI)” value (HCT116-EV cells; [1]) was 0.64 ± 0.07, the “Dose reduction index for Dau” value (HCT116-EV cells; [1]) was 1.59 ± 0.16 and the “Fraction affected (Fa %)” value (HCT116-EV cells; [1]) was 57.98 ± 10.7%. For the same compound, the “Combination index (CI)” value (HCT116-EV cells; [2]) was 0.80 ± 0.02, the “Dose reduction index for Dau” value (HCT116-EV cells; [2]) was 1.26 ± 0.03 and the “Fraction affected (Fa %)” value (HCT116-EV cells; [2]) was 76.14 ± 4.55%. For the same compound, the “Combination index (CI)” value (HCT116-EV cells; [3]) was 0.73 ± 0.05, the “Dose reduction index for Dau” value (HCT116-EV cells; [3]) was 1.38 ± 0.09 and the “Fraction affected (Fa %)” value (HCT116-EV cells; [3]) was 88.86 ± 2.18%. The “Combination index (CI)” value (HCT116-EV cells; [4]) was 0.93 ± 0.17, the “Dose reduction index for Dau” value (HCT116-EV cells; [4]) was 1.10 ± 0.20 and the “Fraction affected (Fa %)” value (HCT116-EV cells; [4]) was 89.81 ± 0.07%. For the same compound, the “Combination index (CI)” value (HCT116-EV cells; [5]) was 0.64 ± 0.01, the “Dose reduction index for Dau” value (HCT116-EV cells; [5]) was 1.60 ± 0.00 and the “Fraction affected (Fa %)” value (HCT116-EV cells; [5]) was 58.22 ± 6.27%. For the same compound, the “Combination index (CI)” value (HCT116-EV cells; [6]) was 0.68 ± 0.05, the “Dose reduction index for Dau” value (HCT116-EV cells; [6]) was 1.48 ± 0.11 and the “Fraction affected (Fa %)” value (HCT116-EV cells; [6]) was 81.17 ± 2.72%. The “Combination index (CI)” value (HCT116-EV cells; [7]) was 0.62 ± 0.12, the “Dose reduction index for Dau” value (HCT116-EV cells; [7]) was 1.65 ± 0.31 and the “Fraction affected (Fa %)” value (HCT116-EV cells; [7]) was 91.66 ± 0.08%. For the same compound, the “Combination index (CI)” value (HCT116-EV cells; [8]) was 0.88 ± 0.12, the “Dose reduction index for Dau” value (HCT116-EV cells; [8]) was 1.15 ± 0.15 and the “Fraction affected (Fa %)” value (HCT116-EV cells; [8]) was 90.59 ± 0.95%. For the same compound, the IC50 (HCT116-EV cells; Homo sapiens, 72 h MTT, read-out: IC50 of BTK inhibitor alone (cell viability)) was 33000 nM, the “reduction of AKR1C3 activity (Dau reduction)” value (recombinant AKR1C3; 10 µM BTK inhibitor) was 89.55% ± 4% and the “reduction of AKR1C3 activity (Dau reduction)” value (recombinant AKR1C3; 50 µM BTK inhibitor) was 96.28% ± 1.58%. The Ki (recombinant AKR1C3; AKR1C3 0.005 mg/mL (0.135 μM)) was 451 nM, the Ki (recombinant AKR1C3; AKR1C3 0.015 mg/mL (0.405 μM)) was 521 nM and the Ki (recombinant AKR1C3; AKR1C3 0.030 mg/mL (0.811 μM)) was 566 nM. For the same compound, the “mode of inhibition (Lineweaver-Burk plot)” value (recombinant AKR1C3; recombinant AKR1C3 with increasing Dau) was “non-competitive/mixed”.
